Source: ChEMBL document CHEMBL4477228, “Discovery of 2-((3-cyanopyridin-2-yl)thio)acetamides as human lactate dehydrogenase A inhibitors to reduce the growth of MG-63 osteosarcoma cells: Virtual screening and biological validation” (Bioorg Med Chem Lett, 2016)
Values belong to the compound of their own block, whether it stands above or below them. Activity calls are given as the source filed them. No cut-off for these calls is given here.

How the values were obtained:
[1] = biological target: T1, L-lactate dehydrogenase A chain (Homo sapiens, UniProt P00338); assay: Inhibition of human LDHA assessed as conversion of pyruvate to lactate measuring disappearance of NADH after 10 mins by fluorescence assay
MG-63 [2] = assay: Cytotoxicity of human MG63 cells assessed as cell growth inhibition after 72 hrs by MTT assay; format: functional, cell-based
MG-63 [3] = assay: Induction of apoptosis in human MG63 cells assessed as viable cells at 2 uM after 12 hrs by Annexin V-FITC/propidium iodide staining based flow cytometry (reference value: 95.8 %); format: functional; conditions: MG-63, 12 h, read-out: Activity
MG-63 [4] = assay: Induction of apoptosis in human MG63 cells assessed as early apoptotic cells at 2 uM after 12 hrs by Annexin V-FITC/propidium iodide staining based flow cytometry (reference value: 0.4 %); format: functional
MG-63 [5] = assay: Induction of apoptosis in human MG63 cells assessed as late apoptotic cells at 2 uM after 12 hrs by Annexin V-FITC/propidium iodide staining based flow cytometry (reference value: 3.2 %); format: functional
MG-63 [6] = assay: Induction of apoptosis in human MG63 cells assessed as necrotic cells at 2 uM after 12 hrs by Annexin V-FITC/propidium iodide staining based flow cytometry (reference value: 0.5 %); format: functional
MG-63 [7] = assay: Induction of apoptosis in human MG63 cells assessed as viable cells at 5 uM after 12 hrs by Annexin V-FITC/propidium iodide staining based flow cytometry (reference value: 95.8 %); format: functional; conditions: MG-63, 12 h, read-out: Activity
MG-63 [8] = assay: Induction of apoptosis in human MG63 cells assessed as early apoptotic cells at 5 uM after 12 hrs by Annexin V-FITC/propidium iodide staining based flow cytometry (reference value: 0.4 %); format: functional
MG-63 [9] = assay: Induction of apoptosis in human MG63 cells assessed as late apoptotic cells at 5 uM after 12 hrs by Annexin V-FITC/propidium iodide staining based flow cytometry (reference value: 3.2 %); format: functional
MG-63 [10] = assay: Induction of apoptosis in human MG63 cells assessed as necrotic cells at 5 uM after 12 hrs by Annexin V-FITC/propidium iodide staining based flow cytometry (reference value: 0.5 %); format: functional
MG-63 [11] = assay: Induction of apoptosis in human MG63 cells assessed as viable cells at 10 uM after 12 hrs by Annexin V-FITC/propidium iodide staining based flow cytometry (reference value: 95.8 %); format: functional; conditions: MG-63, 12 h, read-out: Activity
MG-63 [12] = assay: Induction of apoptosis in human MG63 cells assessed as early apoptotic cells at 10 uM after 12 hrs by Annexin V-FITC/propidium iodide staining based flow cytometry (reference value: 0.4 %); format: functional
MG-63 [13] = assay: Induction of apoptosis in human MG63 cells assessed as late apoptotic cells at 10 uM after 12 hrs by Annexin V-FITC/propidium iodide staining based flow cytometry (reference value: 3.2 %); format: functional
MG-63 [14] = assay: Induction of apoptosis in human MG63 cells assessed as necrotic cells at 10 uM after 12 hrs by Annexin V-FITC/propidium iodide staining based flow cytometry (reference value: 0.5 %); format: functional
MG-63 [15] = assay: Induction of apoptosis in human MG63 cells assessed as viable cells at 10 uM after 6 hrs by Annexin V-FITC/propidium iodide staining based flow cytometry (reference value: 95.8 %); format: functional; conditions: MG-63, 6 h, read-out: Activity
MG-63 [16] = assay: Induction of apoptosis in human MG63 cells assessed as early apoptotic cells at 10 uM after 6 hrs by Annexin V-FITC/propidium iodide staining based flow cytometry (reference value: 0.4 %); format: functional
MG-63 [17] = assay: Induction of apoptosis in human MG63 cells assessed as late apoptotic cells at 10 uM after 6 hrs by Annexin V-FITC/propidium iodide staining based flow cytometry (reference value: 3.2 %); format: functional
MG-63 [18] = assay: Induction of apoptosis in human MG63 cells assessed as necrotic cells at 10 uM after 6 hrs by Annexin V-FITC/propidium iodide staining based flow cytometry (reference value: 0.5 %); format: functional
MG-63 [19] = assay: Induction of apoptosis in human MG63 cells assessed as viable cells at 10 uM after 24 hrs by Annexin V-FITC/propidium iodide staining based flow cytometry (reference value: 95.8 %); format: functional; conditions: MG-63, 24 h, read-out: Activity
MG-63 [20] = assay: Induction of apoptosis in human MG63 cells assessed as early apoptotic cells at 10 uM after 24 hrs by Annexin V-FITC/propidium iodide staining based flow cytometry (reference value: 0.4 %); format: functional
MG-63 [21] = assay: Induction of apoptosis in human MG63 cells assessed as late apoptotic cells at 10 uM after 24 hrs by Annexin V-FITC/propidium iodide staining based flow cytometry (reference value: 3.2 %); format: functional
MG-63 [22] = assay: Induction of apoptosis in human MG63 cells assessed as necrotic cells at 10 uM after 24 hrs by Annexin V-FITC/propidium iodide staining based flow cytometry (reference value: 0.5 %); format: functional
MG-63 [23] = assay: Induction of apoptosis in human MG63 cells after 12 hrs by Annexin V-FITC/propidium iodide staining based flow cytometry; format: functional, cell-based
MG-63 [24] = assay: Induction of apoptosis in human MG63 cells at 10 uM by Annexin V-FITC/propidium iodide staining based flow cytometry; format: functional, cell-based; conditions: TDE = time-dependent effect
[25] = biological target: T1, L-lactate dehydrogenase A chain; assay: Inhibition of human LDHA in MG63 cells assessed as reduction in lactate formation after 12 hrs; format: cell-based
[26] = biological target: T1, L-lactate dehydrogenase A chain; assay: Inhibition of human LDHA in MG63 cells assessed as reduction in lactate formation at 20 uM after 12 hrs; format: cell-based
[27] = Homo sapiens, MG-63, 72 h, read-out: EC50

IC50 [1]: > 100 µM
Compound: COc1ccc(-c2cc(-c3ccc(OC)cc3)c(C#N)c(SCC(=O)Nc3ccc(C)c(C)c3)n2)cc1
EC50 (MG-63 [2]; mg-63): Not Active

IC50 [1]: 3.4 µM
Compound: Cc1ccc(-c2cc(-c3ccc(F)cc3)nc(SCC(=O)Nc3cccc(C)c3)c2C#N)cc1
EC50 (MG-63 [2]; [27]): 6.72 µM

IC50 [1]: 6.59 µM
Compound: COc1ccc(-c2cc(-c3ccccc3)c(C#N)c(SCC(=O)Nc3cc(C)cc(C)c3)n2)cc1
EC50 (MG-63 [2]; [27]): 5.78 µM

The next lines start with the compound.

Compound: COc1ccc(-c2cc(-c3ccc(OC)cc3)c(C#N)c(SCC(=O)Nc3c(C)cccc3C)n2)cc1
IC50 [1]: 22.5 µM
EC50 (MG-63 [2]; [27]): 35.4 µM

Compound: CCc1ccccc1NC(=O)CSc1nc(-c2ccc(OC)cc2)cc(-c2ccc(OC)cc2)c1C#N
IC50 [1]: 1.24 µM
EC50 (MG-63 [2]; [27]): 0.98 µM
viability at 2 µM (MG-63 [3]): 91%
Activity (MG-63 [4]): 2%
Activity (MG-63 [5]): 6.5%
Activity (MG-63 [6]): 0.4%
viability at 5 µM (MG-63 [7]): 88.2%
Activity (MG-63 [8]): 0.7%
Activity (MG-63 [9]): 10.3%
Activity (MG-63 [10]): 0.8%
viability at 10 µM (MG-63 [11]): 82.7%
Activity (MG-63 [12]): 2.8%
Activity (MG-63 [13]): 14.1%
Activity (MG-63 [14]): 0.4%
viability at 10 µM (MG-63 [15]): 86.1%
Activity (MG-63 [16]): 5%
Activity (MG-63 [17]): 8.1%
Activity (MG-63 [18]): 0.8%
viability at 10 µM (MG-63 [19]): 73.1%
Activity (MG-63 [20]): 3.1%
Activity (MG-63 [21]): 23.5%
Activity (MG-63 [22]): 0.3%
Activity (MG-63 [23]): Dose-dependent effect
Activity (MG-63 [24]): Tde
inhibition [25]: Dose-dependent effect

Compound: COc1ncc(-c2ccc3c(Nc4cccc(C(=O)O)c4)c(S(N)(=O)=O)cnc3c2)c(OC)n1
IC50 [1]: 7.4 µM
EC50 (MG-63 [2]; [27]): 28.4 µM
inhibition [26]: Active
